For one series, the target named is T1, p38 MAPKγ (MAPK12) (Homo sapiens, UniProt P53778).
T1 construct: purchased Invitrogen
T1 sequence (P53778 1-367): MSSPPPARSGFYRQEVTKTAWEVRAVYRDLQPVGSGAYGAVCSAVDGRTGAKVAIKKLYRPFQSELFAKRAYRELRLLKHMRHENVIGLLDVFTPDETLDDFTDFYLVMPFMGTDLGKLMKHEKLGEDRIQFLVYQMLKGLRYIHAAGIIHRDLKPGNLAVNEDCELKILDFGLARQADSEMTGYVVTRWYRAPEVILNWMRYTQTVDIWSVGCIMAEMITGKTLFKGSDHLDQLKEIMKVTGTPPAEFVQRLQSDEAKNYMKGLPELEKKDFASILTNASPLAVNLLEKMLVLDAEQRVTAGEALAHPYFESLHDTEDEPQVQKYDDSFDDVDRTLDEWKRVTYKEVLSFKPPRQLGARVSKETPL
As to the kind of experiment: Enzyme inhibition assay (FRET, Z-LYTE), p38 MAPKγ. It is filed as biochemical. Conditions: read-out: Enzyme Inhibition IC50 p38γ. In a few lines: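 Recombinant phosphorylated p38 MAPKγ preincubated 2 h at RT with compound in HEPES buffer, then 2 μM FRET peptide and 100 μM ATP added for 1 h; protease development 1 h. Coumarin/fluorescein emission ratio gave phosphorylation; IC50 from concentration-response versus uninhibited control.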

Series [1] concerns TNFα release in THP-1 cells. As to the kind of experiment: LPS-induced TNFα release in THP-1 cells. Conditions: Homo sapiens. In kind it is cell-based, human. In short, it runs like this: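 Human monocytic THP-1 cells stimulated with 3 μg/mL E. coli LPS for 4 hr; supernatant TNFα measured by sandwich ELISA. Inhibition at each concentration versus vehicle control, IC50 from concentration-response curve.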

Series [2] relates to TNFα release in d-U937 cells. As to the kind of experiment: LPS-induced TNFα release in d-U937 cells. In kind it is cell-based, human. Conditions: Homo sapiens, dU937, relative to 10 μg/mL BIRB796, read-out: LPS/TNFα REC50 d-U937. In short, it runs like this:
(§1)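 PMA-differentiated (100 ng/ml, 48–72 hr) U937 macrophage-type cells pre-incubated 2 hr with compound, then stimulated 4 hr with 0.1 μg/mL E. coli O111:B4 LPS; supernatant TNFα and IL-8 measured by sandwich ELISA. TNFα inhibition expressed relative to 10 μg/mL BIRB796, giving REC50; IL-8 inhibition versus vehicle, giving IC50.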

For series [3], the system named is IL-8 release in d-U937 cells. As to the kind of experiment: LPS-induced IL-8 release in d-U937 cells. In kind it is cell-based, human. Conditions: Homo sapiens, dU937. In a few lines:
as §1

For series [4], the system named is Differentiated U937 cells. As to the kind of experiment: Cell viability MTT assay. In kind it is cell-based, human. Conditions: negative = apparent increase in viability; for MTT Assay (Viability) 4 h d-U937, percentage loss of cell viability: 4 hr in 5% FCS; for MTT Assay (Viability) 24 h d-U937, percentage loss of cell viability: 24 h in 10% FCS. In short, it runs like this: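 Differentiated U937 cells pre-incubated with compound either 4 hr in 5% FCS or 24 h in 10% FCS, then 1 hr MTT. Formazan dissolved in DMSO, absorbance at 550 nm. Percentage viability loss relative to 0.5% DMSO vehicle; apparent increases appear as negative percentages.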
On the technique in general: Tetrazolium assays rely on reduction of a dye to a coloured formazan, in cell work by metabolically active cells.

This note sets out measurements from patent publication US10000471B2, “Pyrazole P38 map kinase inhibitors” (Respivert Limited, priority 2010, dated 2018).

In general, IC50 refers to the concentration at which inhibition is half-maximal. For the compound `CNC(=O)Nc1cc(Oc2ccc(NC(=O)Nc3cc(C(C)(C)C)nn3-c3ccc(OC)cc3)c(Cl)c2Cl)ccn1` [Example 9, N-Methyl-N′-4-(4-(3-(3-tert-butyl-1-p-anisyl-1H-pyrazol-5-yl)ureido)-2,3-dichlorophen-1-yloxy)pyridin-2-ylurea], the results for the IC50 (on p38 MAPKγ (MAPK12); in series [1]; in series [3]) were 67.2 nM, 1 nM and 0.8 nM, respectively. Also, the EC50 in series [2] came to 0.2 nM. For the same compound, the “MTT Assay (Viability) 4 h d-U937, percentage loss of cell viability” value in series [4] was −26.8%. Further, the “MTT Assay (Viability) 24 h d-U937, percentage loss of cell viability” value in series [4] was found to be 65.3%.
Regarding `COc1ccc(-n2nc(C(C)(C)C)cc2NC(=O)Nc2ccc(Oc3ccnc(NC(=O)N4CCCC4)c3)c(Cl)c2Cl)cc1` [Example 76, N-(4-(4-(3-(3-(tert-butyl)-1-(4-methoxyphenyl)-1H-pyrazol-5-yl)ureido)-2,3-dichlorophenoxy)pyridin-2-yl)pyrrolidine-1-carboxamide], the IC50 on p38 MAPKγ (MAPK12) is 134 nM; in series [1], 0.6 nM; in series [3], 0.8 nM. For the same compound, the EC50 in series [2] is 0.9 nM. In addition, in series [4], the “MTT Assay (Viability) 4 h d-U937, percentage loss of cell viability” value was −25.5%. The “MTT Assay (Viability) 24 h d-U937, percentage loss of cell viability” value in series [4] turned out to be 27.2%.
